According to the kinase profiling compilation of Christmann-Franck et al. (2016):

How the values were obtained:
Experiment in all cases: KINOMEscan competition binding
Conditions in all cases: compound 10.0 µM
[1] = molecular target: ACVR2A (human) (UniProt P27037)
[2] = molecular target: AURKA (human) (UniProt O14965)
[3] = molecular target: CAMK2B (human) (UniProt Q13554)
[4] = molecular target: CDC2L2 (human) (UniProt Q9UQ88)
[5] = molecular target: CDK9 (human) (UniProt P50750)
[6] = molecular target: CHEK2 (human) (UniProt O96017)
Chain of CHEK2 (human) (O96017 whole entry, looked up): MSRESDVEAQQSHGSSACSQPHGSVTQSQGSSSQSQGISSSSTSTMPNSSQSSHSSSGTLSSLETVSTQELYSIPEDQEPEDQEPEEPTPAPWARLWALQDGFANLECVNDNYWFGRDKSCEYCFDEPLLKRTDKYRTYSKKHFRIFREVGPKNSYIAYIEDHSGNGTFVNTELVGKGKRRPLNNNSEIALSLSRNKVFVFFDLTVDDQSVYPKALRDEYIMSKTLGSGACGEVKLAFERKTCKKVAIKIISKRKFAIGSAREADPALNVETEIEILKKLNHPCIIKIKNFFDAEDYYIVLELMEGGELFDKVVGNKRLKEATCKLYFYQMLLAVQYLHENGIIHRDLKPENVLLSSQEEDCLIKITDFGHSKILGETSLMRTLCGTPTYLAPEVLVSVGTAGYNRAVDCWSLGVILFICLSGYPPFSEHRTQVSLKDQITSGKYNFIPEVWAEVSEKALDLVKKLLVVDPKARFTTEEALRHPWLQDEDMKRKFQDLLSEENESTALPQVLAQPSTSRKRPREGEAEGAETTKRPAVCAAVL

[7] = molecular target: CLK4 (human) (UniProt Q9HAZ1)
[8] = molecular target: DDR1 (human) (UniProt Q08345)
[9] = molecular target: DSTYK (human) (UniProt Q6XUX3)
[10] = molecular target: DYRK1B (human) (UniProt Q9Y463)
[11] = molecular target: EPHA8 (human) (UniProt P29322)
[12] = molecular target: FGFR2 (human) (UniProt P21802)
[13] = molecular target: FGR (human) (UniProt P09769)
[14] = molecular target: GSK3A (human) (UniProt P49840)
Chain of GSK3A (human) (P49840 whole entry, looked up): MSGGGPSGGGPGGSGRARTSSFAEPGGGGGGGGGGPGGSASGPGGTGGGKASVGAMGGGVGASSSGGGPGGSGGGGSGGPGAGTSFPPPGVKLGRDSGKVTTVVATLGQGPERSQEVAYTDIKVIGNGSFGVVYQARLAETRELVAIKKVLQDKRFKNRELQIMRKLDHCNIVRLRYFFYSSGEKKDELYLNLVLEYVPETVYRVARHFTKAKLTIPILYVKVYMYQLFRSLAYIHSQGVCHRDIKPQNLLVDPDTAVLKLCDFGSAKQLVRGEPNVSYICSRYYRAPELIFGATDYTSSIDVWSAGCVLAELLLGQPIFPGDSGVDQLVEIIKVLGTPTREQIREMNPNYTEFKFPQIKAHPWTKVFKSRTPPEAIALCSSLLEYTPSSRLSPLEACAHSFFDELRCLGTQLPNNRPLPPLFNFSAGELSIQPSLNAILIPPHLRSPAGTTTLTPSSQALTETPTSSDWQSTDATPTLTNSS

[15] = molecular target: ICK (human) (UniProt Q9UPZ9)
[16] = molecular target: IRAK4 (human) (UniProt Q9NWZ3)
[17] = tested on: KIT (human), P10721 [V559D/V654A]
[18] = molecular target: LATS1 (human) (UniProt O95835)
Chain of LATS1 (human) (O95835 whole entry, looked up): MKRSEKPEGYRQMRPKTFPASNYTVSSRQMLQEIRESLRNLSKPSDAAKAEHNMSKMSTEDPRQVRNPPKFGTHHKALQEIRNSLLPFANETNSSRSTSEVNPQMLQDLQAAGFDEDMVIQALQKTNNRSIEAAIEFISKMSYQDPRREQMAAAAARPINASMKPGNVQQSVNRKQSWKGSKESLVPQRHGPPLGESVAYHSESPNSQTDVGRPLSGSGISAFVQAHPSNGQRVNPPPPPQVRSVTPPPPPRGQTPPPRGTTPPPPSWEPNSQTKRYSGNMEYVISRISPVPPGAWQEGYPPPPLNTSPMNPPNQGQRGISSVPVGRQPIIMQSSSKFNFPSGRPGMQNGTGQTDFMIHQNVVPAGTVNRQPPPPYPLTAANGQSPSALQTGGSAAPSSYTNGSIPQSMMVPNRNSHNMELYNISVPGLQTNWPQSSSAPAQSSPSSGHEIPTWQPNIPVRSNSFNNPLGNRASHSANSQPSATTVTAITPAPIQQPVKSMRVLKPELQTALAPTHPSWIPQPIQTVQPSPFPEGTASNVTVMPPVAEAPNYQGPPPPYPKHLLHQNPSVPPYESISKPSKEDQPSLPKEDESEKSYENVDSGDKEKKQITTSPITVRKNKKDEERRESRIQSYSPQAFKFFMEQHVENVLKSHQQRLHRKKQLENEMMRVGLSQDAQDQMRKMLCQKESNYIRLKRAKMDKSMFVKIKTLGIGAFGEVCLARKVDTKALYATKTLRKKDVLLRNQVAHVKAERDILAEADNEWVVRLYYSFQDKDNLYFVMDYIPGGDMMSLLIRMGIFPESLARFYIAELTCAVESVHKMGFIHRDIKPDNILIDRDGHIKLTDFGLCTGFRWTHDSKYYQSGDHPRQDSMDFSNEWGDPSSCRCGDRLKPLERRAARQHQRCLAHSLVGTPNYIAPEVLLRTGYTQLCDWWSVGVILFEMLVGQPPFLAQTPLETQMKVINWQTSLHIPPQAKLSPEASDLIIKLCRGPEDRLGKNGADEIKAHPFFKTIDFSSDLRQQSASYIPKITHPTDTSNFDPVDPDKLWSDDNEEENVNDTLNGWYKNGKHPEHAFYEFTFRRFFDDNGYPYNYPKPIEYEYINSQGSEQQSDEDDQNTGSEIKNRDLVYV

[19] = molecular target: LTK (human) (UniProt P29376)
[20] = molecular target: MAK (human) (UniProt P20794)
[21] = molecular target: MAP2K3 (human) (UniProt P46734)
[22] = molecular target: MAP3K13 (human) (UniProt O43283)
Chain of MAP3K13 (human) (O43283 whole entry, looked up): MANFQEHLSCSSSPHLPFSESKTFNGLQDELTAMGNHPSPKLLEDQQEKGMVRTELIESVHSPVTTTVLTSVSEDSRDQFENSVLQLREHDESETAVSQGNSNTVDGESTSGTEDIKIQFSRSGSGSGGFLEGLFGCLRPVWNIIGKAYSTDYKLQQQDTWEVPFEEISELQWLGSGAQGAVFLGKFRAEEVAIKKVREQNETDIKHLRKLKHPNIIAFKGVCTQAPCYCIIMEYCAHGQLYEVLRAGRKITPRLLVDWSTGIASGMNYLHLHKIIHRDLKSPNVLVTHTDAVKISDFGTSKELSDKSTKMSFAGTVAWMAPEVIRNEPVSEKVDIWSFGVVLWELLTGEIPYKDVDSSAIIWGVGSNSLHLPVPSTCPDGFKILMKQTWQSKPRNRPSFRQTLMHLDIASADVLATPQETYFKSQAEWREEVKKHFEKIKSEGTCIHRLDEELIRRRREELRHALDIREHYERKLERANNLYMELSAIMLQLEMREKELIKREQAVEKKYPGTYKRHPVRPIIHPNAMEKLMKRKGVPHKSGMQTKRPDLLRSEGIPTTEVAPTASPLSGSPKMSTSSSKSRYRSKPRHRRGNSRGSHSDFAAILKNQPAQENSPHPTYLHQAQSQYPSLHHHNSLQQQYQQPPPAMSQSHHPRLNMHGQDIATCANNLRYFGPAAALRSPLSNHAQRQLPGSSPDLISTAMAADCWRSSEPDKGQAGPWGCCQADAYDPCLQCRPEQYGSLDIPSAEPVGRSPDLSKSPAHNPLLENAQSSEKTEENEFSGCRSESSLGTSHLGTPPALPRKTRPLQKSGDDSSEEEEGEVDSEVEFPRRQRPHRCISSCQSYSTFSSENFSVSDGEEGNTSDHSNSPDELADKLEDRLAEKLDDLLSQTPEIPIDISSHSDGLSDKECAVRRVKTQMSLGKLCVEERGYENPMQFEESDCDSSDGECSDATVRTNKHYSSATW

[23] = molecular target: MAPK11 (human) (UniProt Q15759)
[24] = molecular target: MAPK15 (human) (UniProt Q8TD08)
[25] = molecular target: MERTK (human) (UniProt Q12866)
[26] = molecular target: NEK2 (human) (UniProt P51955)
Chain of NEK2 (human) (P51955 whole entry, looked up): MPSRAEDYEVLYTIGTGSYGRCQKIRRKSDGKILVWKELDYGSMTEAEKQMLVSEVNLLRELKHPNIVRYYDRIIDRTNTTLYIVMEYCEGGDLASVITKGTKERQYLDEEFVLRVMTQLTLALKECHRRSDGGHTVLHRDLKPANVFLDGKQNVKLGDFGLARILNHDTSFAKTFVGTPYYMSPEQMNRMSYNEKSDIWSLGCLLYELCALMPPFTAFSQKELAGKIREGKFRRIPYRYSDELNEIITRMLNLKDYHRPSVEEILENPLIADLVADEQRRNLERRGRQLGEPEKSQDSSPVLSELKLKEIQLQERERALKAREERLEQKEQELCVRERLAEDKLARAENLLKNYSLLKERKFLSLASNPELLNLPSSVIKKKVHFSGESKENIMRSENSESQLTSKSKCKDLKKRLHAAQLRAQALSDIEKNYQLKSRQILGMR

[27] = molecular target: OXSR1 (human) (UniProt O95747)
[28] = molecular target: PDGFRB (human) (UniProt P09619)
[29] = molecular target: PIK3CA (human) (UniProt P42336)
[30] = molecular target: PIP5K1A (human) (UniProt Q99755)
Chain of PIP5K1A (human) (Q99755 whole entry, looked up): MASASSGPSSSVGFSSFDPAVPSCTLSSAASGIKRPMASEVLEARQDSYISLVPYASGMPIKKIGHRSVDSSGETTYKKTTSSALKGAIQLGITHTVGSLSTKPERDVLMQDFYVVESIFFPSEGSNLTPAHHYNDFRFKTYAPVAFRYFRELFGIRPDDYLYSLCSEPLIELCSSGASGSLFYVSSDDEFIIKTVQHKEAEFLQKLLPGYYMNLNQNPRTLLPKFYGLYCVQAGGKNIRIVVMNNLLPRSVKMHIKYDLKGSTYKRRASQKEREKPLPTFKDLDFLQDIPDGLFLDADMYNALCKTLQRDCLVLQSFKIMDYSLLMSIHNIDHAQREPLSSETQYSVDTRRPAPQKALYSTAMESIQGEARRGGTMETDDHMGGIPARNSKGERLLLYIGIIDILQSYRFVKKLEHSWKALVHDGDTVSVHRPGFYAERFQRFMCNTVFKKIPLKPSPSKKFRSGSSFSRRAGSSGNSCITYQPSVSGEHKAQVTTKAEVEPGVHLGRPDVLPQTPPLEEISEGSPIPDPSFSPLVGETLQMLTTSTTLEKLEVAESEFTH

[31] = molecular target: PLK2 (human) (UniProt Q9NYY3)
[32] = molecular target: PLK3 (human) (UniProt Q9H4B4)
[33] = molecular target: PRKCD (human) (UniProt Q05655)
[34] = molecular target: RAF1 (human) (UniProt P04049)
[35] = molecular target: RIOK1 (human) (UniProt Q9BRS2)
[36] = molecular target: SIK2 (human) (UniProt Q9H0K1)
Chain of SIK2 (human) (Q9H0K1 whole entry, looked up): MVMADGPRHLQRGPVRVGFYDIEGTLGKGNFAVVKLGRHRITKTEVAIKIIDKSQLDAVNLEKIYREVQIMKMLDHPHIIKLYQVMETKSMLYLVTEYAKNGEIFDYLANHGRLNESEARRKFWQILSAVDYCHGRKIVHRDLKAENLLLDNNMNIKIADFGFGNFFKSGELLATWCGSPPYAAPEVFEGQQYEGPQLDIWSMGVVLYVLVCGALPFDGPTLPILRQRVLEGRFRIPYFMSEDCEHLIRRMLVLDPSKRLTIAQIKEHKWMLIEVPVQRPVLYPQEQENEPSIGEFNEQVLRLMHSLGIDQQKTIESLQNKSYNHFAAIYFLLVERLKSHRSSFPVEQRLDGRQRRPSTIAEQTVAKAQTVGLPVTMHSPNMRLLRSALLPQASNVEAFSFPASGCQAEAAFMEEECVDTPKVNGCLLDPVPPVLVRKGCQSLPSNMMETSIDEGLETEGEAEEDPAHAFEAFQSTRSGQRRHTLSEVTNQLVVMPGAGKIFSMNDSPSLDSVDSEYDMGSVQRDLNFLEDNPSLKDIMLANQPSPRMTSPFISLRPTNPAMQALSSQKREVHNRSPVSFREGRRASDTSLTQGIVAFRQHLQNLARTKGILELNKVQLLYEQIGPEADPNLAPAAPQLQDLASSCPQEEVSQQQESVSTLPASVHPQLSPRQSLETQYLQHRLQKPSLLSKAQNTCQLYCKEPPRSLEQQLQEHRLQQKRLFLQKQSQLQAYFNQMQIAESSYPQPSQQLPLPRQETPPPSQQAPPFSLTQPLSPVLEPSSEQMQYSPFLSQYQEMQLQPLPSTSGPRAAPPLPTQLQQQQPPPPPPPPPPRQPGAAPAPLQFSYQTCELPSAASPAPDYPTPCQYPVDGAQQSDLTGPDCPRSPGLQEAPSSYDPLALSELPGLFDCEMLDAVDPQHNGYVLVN

[37] = molecular target: TGFBR1 (human) (UniProt P36897)
[38] = molecular target: TNNI3K (human) (UniProt Q59H18)
[39] = molecular target: TYRO3 (human) (UniProt Q06418)
[40] = molecular target: WEE2 (human) (UniProt P0C1S8)

SMILES | kinase still bound, per cent of control [1] [%] | kinase still bound, per cent of control [2] [%] | kinase still bound, per cent of control [3] [%] | kinase still bound, per cent of control [4] [%] | kinase still bound, per cent of control [5] [%] | kinase still bound, per cent of control [6] [%] | kinase still bound, per cent of control [7] [%] | kinase still bound, per cent of control [8] [%] | kinase still bound, per cent of control [9] [%] | kinase still bound, per cent of control [10] [%] | kinase still bound, per cent of control [11] [%] | kinase still bound, per cent of control [12] [%] | kinase still bound, per cent of control [13] [%] | kinase still bound, per cent of control [14] [%] | kinase still bound, per cent of control [15] [%] | kinase still bound, per cent of control [16] [%] | kinase still bound, per cent of control [17] [%] | kinase still bound, per cent of control [18] [%] | kinase still bound, per cent of control [19] [%] | kinase still bound, per cent of control [20] [%] | further results
COc1cc(C(=O)N2CCC(N3CCN(C)CC3)CC2)ccc1Nc1ncc2c(n1)N(C)c1ccccc1C(=O)N2C | 100 | 1.2 | 62 | 82 | 100 | 66 | 54 | 100 | 16 | 94 | 80 | 95 | 84 | 100 | 90 | 83 | 100 | 100 | 32 | 72 | kinase still bound, per cent of control [21]: 75%; kinase still bound, per cent of control [22]: 100%; kinase still bound, per cent of control [23]: 60%; kinase still bound, per cent of control [24]: 100%; kinase still bound, per cent of control [25]: 100%; kinase still bound, per cent of control [26]: 100%; kinase still bound, per cent of control [27]: 88%; kinase still bound, per cent of control [28]: 100%; kinase still bound, per cent of control [29]: 74%; kinase still bound, per cent of control [30]: 90%; kinase still bound, per cent of control [31]: 100%; kinase still bound, per cent of control [32]: 51%; kinase still bound, per cent of control [33]: 75%; kinase still bound, per cent of control [34]: 100%; kinase still bound, per cent of control [35]: 100%; kinase still bound, per cent of control [36]: 98%; kinase still bound, per cent of control [37]: 100%; kinase still bound, per cent of control [38]: 100%; kinase still bound, per cent of control [39]: 100%; kinase still bound, per cent of control [40]: 100%
COc1cc2ncnc(-n3nc(-c4ccccn4)nc3N)c2cc1OC | 66 | 15 | 37 | 100 | 76 | 78 | 2.2 | 88 | 19 | 2 | 59 | 76 | 36 | 73 | 47 | 5.8 | 82 | 100 | 24 | 100 | kinase still bound, per cent of control [21]: 27%; kinase still bound, per cent of control [22]: 96%; kinase still bound, per cent of control [23]: 8.2%; kinase still bound, per cent of control [24]: 0.55%; kinase still bound, per cent of control [25]: 29%; kinase still bound, per cent of control [26]: 57%; kinase still bound, per cent of control [27]: 42%; kinase still bound, per cent of control [28]: 3.4%; kinase still bound, per cent of control [29]: 38%; kinase still bound, per cent of control [30]: 6.4%; kinase still bound, per cent of control [31]: 13%; kinase still bound, per cent of control [32]: 33%; kinase still bound, per cent of control [33]: 76%; kinase still bound, per cent of control [34]: 59%; kinase still bound, per cent of control [35]: 29%; kinase still bound, per cent of control [36]: 61%; kinase still bound, per cent of control [37]: 14%; kinase still bound, per cent of control [38]: 80%; kinase still bound, per cent of control [39]: 63%; kinase still bound, per cent of control [40]: 100%
COCC(=O)NC/C=C/c1ccc2ncnc(Nc3ccc(Oc4ccc(C)nc4)c(C)c3)c2c1 | 100 | 100 | 88 | 100 | 100 | 55 | 100 | 52 | 75 | 92 | 98 | 100 | 89 | 100 | 100 | 100 | 88 | 100 | 88 | 90 | kinase still bound, per cent of control [21]: 100%; kinase still bound, per cent of control [22]: 80%; kinase still bound, per cent of control [23]: 100%; kinase still bound, per cent of control [24]: 100%; kinase still bound, per cent of control [25]: 97%; kinase still bound, per cent of control [26]: 100%; kinase still bound, per cent of control [27]: 100%; kinase still bound, per cent of control [28]: 46%; kinase still bound, per cent of control [29]: 100%; kinase still bound, per cent of control [30]: 88%; kinase still bound, per cent of control [31]: 100%; kinase still bound, per cent of control [32]: 99%; kinase still bound, per cent of control [33]: 87%; kinase still bound, per cent of control [34]: 100%; kinase still bound, per cent of control [35]: 91%; kinase still bound, per cent of control [36]: 84%; kinase still bound, per cent of control [37]: 100%; kinase still bound, per cent of control [38]: 100%; kinase still bound, per cent of control [39]: 80%; kinase still bound, per cent of control [40]: 81%
